# In patent US12276667B2, “Isolation and characterization of the nuclear proteome” (Altius Institute for Biomedical Sciences, priority 2018, dated 2025):
# Test system: IKZF1
# Assay: Nuclear proteome by mass spectrometry (DIA) after cell treatment with thalidomide
# Assay type: cell-based
# Conditions: cells treated with thalidomide; FIG. 14
# Description: First, cells of interest are isolated. This is done by harvesting, homogenizing, washing, and then pelleting the cells of interest. The pellet is then resuspended in a buffer A not comprising polycations (e.g., no spermidine or spermine). NP40 detergent solution is then added to isolate nuclei and cells are spun and are pelleted. Optionally, prior to salt extraction, the pellet is treated with MNase at 37° C. for 5 minutes and is quenched with EDTA. The pellet is resuspended in buffer A and […] NaCl, and then is incubated at 4° C. for 30 minutes. The insoluble chromatin is pelleted for later analysis. The supernatant is used for further analysis.
# 400 ul of 01.% PPS is added to the nuclear pellet of EXAMPLE 1, which is then sonicated at a setting output of 5 for 30 seconds and a protein concentration is determined using A280 reading. The sample is then boiled at 99 C for 5 minutes, is allowed to cool at room temperature, and is then briefly spun down. DTT is added for a final concentration of 5 mM, and is incubated at 60° C. for 30 minutes. Next, IAA is added for a final concentration of 15 mM, and is incubated at room temperature in the dark for 30 minutes. […]
# Data were acquired on a ThermoFisher QExactive-HF instrument operating in DIA mode. […] Peptide quantification was performed using EncyclopeDIA software. […]
structure (smiles),measurement,value
O=C1CCC(N2C(=O)c3ccccc3C2=O)C(=O)N1 (stereo not shown) [thalidomide],pharmacological degradation of IKZF1 after cell treatment,degraded
